Laboratory results reported in US20060058274A1, “Use of an aldosterone receptor antagonist to improve cognitive function” (Pharmacia Corporation, priority 2000, published 2006).

Experiments:
[1] = system: mice; conditions: cited from earlier work
[2] = system: male Wistar rats; conditions: cited from earlier work; for corticosterone-induced increase in behavioral reactivity: pretreatment, intracerebroventricular injection
[3] = system: patients with HF or hypertension; assay: Phase II eplerenone HF and hypertension trials; assay type: in vivo, human; conditions: 25 to 50 mg QD
[4] = system: patients with mild-to-moderate hypertension; assay: Phase II dose-ranging study of eplerenone in mild-to-moderate hypertension; assay type: in vivo, human; conditions: for adjusted mean change in ABPM DBP from baseline to final visit / adjusted mean change in ABPM SBP from baseline to final visit: ambulatory blood pressure monitoring; for adjusted mean change in Cuff DBP from baseline to final visit / adjusted mean change in Cuff SBP from baseline to final visit: eight-week study
Excerpt: The adjusted mean changes (in mmHg) in diastolic blood pressure (DBP) and systolic blood pressure (SBP) from baseline to final visit are shown in Table 1A.

[5] = system: Dahl salt-sensitive (DS) rat; conditions: low, non-antihypertensive doses, cited from earlier work; for memory function (passive avoidance): aged DS rats on low salt diet
[6] = Physical stability of solid state forms of eplerenone; assay type: physicochemical; conditions: temperatures below the enantiotropic transition temperature
[7] = biological target: T1, central mineralocorticoid receptors (Homo sapiens, UniProt P08235); conditions: cited from earlier work
T1 sequence (P08235 1-984): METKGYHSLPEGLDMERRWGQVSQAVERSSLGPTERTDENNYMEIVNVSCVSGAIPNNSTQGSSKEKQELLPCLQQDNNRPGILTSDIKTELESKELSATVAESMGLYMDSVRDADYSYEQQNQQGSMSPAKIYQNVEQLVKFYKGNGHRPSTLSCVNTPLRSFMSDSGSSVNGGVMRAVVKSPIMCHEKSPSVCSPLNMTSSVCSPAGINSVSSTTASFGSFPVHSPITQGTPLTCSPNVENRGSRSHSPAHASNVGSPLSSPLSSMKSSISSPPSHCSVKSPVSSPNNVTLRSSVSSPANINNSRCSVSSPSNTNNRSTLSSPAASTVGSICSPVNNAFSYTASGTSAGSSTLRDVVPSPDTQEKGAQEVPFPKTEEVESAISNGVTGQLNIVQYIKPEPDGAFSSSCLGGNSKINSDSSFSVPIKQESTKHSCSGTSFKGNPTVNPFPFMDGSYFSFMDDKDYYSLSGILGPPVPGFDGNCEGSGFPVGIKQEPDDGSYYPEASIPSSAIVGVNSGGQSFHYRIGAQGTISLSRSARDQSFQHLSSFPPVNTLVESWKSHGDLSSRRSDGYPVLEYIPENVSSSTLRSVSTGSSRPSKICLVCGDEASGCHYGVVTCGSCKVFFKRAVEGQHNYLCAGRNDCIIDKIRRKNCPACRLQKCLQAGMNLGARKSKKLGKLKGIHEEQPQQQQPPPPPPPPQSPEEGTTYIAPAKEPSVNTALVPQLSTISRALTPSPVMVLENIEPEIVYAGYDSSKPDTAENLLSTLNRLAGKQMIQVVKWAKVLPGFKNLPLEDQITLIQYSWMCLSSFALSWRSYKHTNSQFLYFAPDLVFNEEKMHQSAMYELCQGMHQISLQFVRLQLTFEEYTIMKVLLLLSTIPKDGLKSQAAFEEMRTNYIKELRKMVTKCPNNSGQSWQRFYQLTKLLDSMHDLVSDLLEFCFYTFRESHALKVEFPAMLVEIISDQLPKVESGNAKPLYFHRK

[8] = biological target: T2, glucocorticoid receptors (Homo sapiens, UniProt P04150); conditions: cited from earlier work
T2 sequence (P04150 1-777): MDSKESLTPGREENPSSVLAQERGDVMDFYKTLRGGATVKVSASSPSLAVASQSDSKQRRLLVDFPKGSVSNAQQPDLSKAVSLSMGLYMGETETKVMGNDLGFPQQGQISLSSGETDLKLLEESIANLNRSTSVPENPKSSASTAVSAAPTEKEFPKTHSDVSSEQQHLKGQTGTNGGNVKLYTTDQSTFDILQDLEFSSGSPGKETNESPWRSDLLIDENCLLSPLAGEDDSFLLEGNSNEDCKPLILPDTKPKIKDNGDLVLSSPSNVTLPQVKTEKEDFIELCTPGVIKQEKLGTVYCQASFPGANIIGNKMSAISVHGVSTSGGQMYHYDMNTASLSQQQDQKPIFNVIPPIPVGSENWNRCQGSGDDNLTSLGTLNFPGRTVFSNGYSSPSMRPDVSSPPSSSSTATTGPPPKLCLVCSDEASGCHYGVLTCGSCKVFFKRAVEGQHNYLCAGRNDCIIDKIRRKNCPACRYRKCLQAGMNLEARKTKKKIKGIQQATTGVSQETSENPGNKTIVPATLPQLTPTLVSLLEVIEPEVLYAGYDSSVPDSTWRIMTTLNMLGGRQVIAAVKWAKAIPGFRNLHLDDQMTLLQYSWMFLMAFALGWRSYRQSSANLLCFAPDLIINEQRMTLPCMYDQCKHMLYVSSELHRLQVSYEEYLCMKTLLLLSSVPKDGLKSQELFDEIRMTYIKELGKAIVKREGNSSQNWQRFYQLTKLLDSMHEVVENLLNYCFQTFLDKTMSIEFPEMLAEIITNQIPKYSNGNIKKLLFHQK

[9] = Dissolution rate of unformulated solid state forms of eplerenone; assay type: physicochemical; conditions: temperatures below the enantiotropic transition temperature

**Q.** With NC(=O)CN1CCCC1=O [piracetam] as the compound, how does the retention performance ([1]; pretreatment, amnesia induced by electro-shock) read?
**A.** Its retention performance is “significantly improved”.

**Q.** For CCC[C@@H]1CC2=CC(=O)CC[C@]2(C)[C@H]2CC[C@@]3(C)[C@@H](CC[C@@]3(O)CCC(=O)[O-])[C@H]12.[K+] [RU28318], which “corticosterone-induced increase in behavioral reactivity” value [2] is on record?
**A.** Its value is “prevented”.

**Q.** With CC#C[C@]1(O)CC[C@H]2[C@@H]3CCC4=CC(=O)CCC4=C3[C@@H](c3ccc(N(C)C)cc3)C[C@@]21C [RU38486] as the compound, how does the “corticosterone-induced increase in behavioral reactivity” value [2] read?
**A.** The value was “not effective”.

**Q.** For COC(=O)[C@@H]1CC2=CC(=O)CC[C@]2(C)[C@@]23O[C@@H]2C[C@@]2(C)[C@@H](CC[C@@]24CCC(=O)O4)[C@H]13 [Eplerenone, Pregn-4-ene-7,21-dicarboxylic acid, 9,11-epoxy-17-hydroxy-3-oxo-,γ-lactone, methyl ester, (7α,11α,17β)-], which “diuretic or hemodynamic effect” value [3] is on record?
**A.** The value was “neither diuretic nor hemodynamic”.

**Q.** And the “plasma BNP levels” value [3]?
**A.** Its value is “lowered”.

**Q.** What about the “plasma renin and aldosterone levels” value [3] of the same compound?
**A.** The value was “increased”.

**Q.** And the “effect on the ACE-inhibited mice” value ([1]; mouse, in vivo)?
**A.** Its value is “had no effect”.

**Q.** And the “retention-sparing effects of piracetam” value ([1]; mouse, in vivo)?
**A.** The value was “prevented”.

**Q.** And the “adjusted mean change in ABPM DBP from baseline to final visit” value (from here on “adjusted mean change in ABPM DBP”) ([4]; 25 mg BID)?
**A.** Its value is −4.1 mmHg.

**Q.** What about the “adjusted mean change in ABPM SBP from baseline to final visit” value (shortened to “adjusted mean change in ABPM SBP”) ([4]; 25 mg BID) of the same compound?
**A.** Its value is −7.5 mmHg.

**Q.** What about the “adjusted mean change in Cuff DBP from baseline to final visit” value (“adjusted mean change in Cuff DBP” below) ([4]; 25 mg BID) of the same compound?
**A.** The value was −4.4 mmHg.

**Q.** And the “adjusted mean change in Cuff SBP from baseline to final visit” value (“adjusted mean change in Cuff SBP” below) ([4]; 25 mg BID)?
**A.** The value was −8.1 mmHg.

**Q.** What about the “adjusted mean change in ABPM DBP” value ([4]; 50 mg BID) of the same compound?
**A.** Its value is −6.6 mmHg.

**Q.** And the “adjusted mean change in ABPM SBP” value ([4]; 50 mg BID)?
**A.** Its value is −11.6 mmHg.

**Q.** And the “adjusted mean change in Cuff DBP” value ([4]; 50 mg BID)?
**A.** The value was −7.8 mmHg.

**Q.** And the “adjusted mean change in Cuff SBP” value ([4]; 50 mg BID)?
**A.** Its value is −11.7 mmHg.

**Q.** And the “adjusted mean change in Cuff DBP” value ([4]; 50 mg QD)?
**A.** Its value is −4.5 mmHg.

**Q.** And the “adjusted mean change in Cuff DBP” value ([4]; 100 mg QD)?
**A.** Its value is −4.4 mmHg.

**Q.** And the “adjusted mean change in Cuff SBP” value ([4]; 100 mg QD)?
**A.** The value was −7.9 mmHg.

**Q.** What about the “frequency of transient hyperkalemia (i.e., $5.4 mmol/L)” value ([4]; 200 mg BID and 400 mg QD treatment groups) of the same compound?
**A.** Its value is “increased frequency”.

**Q.** What about the “adjusted mean change in ABPM DBP” value ([4]; 200 mg BID) of the same compound?
**A.** Its value is −9.0 mmHg.

**Q.** And the “adjusted mean change in ABPM SBP” value ([4]; 200 mg BID)?
**A.** Its value is −16.1 mmHg.

**Q.** What about the “adjusted mean change in Cuff DBP” value ([4]; 200 mg BID) of the same compound?
**A.** Its value is −8.9 mmHg.

**Q.** And the “adjusted mean change in Cuff SBP” value ([4]; 200 mg BID)?
**A.** Its value is −14.8 mmHg.

**Q.** What about the “adjusted mean change in Cuff DBP” value ([4]; 400 mg QD) of the same compound?
**A.** The value was −8.7 mmHg.

**Q.** What about the “adjusted mean change in Cuff SBP” value ([4]; 400 mg QD) of the same compound?
**A.** Its value is −15.0 mmHg.

**Q.** What about the plasma renin activity ([4]; increasing doses, FIG. 1-1) of the same compound?
**A.** The plasma renin activity was “increased levels”.

**Q.** What about the serum aldosterone ([4]; increasing doses, FIG. 1-1) of the same compound?
**A.** The serum aldosterone was “increased levels”.

**Q.** And the systolic blood pressure ([4]; increasing doses, FIG. 1-2)?
**A.** The systolic blood pressure was “decreased”.

**Q.** And the diastolic blood pressure ([4]; increasing doses, FIG. 1-3)?
**A.** Its diastolic blood pressure is “decreased”.

**Q.** What about the tolerability ([4]; total daily doses 50, 100 or 400 mg) of the same compound?
**A.** The tolerability was “well tolerated”.

**Q.** For CCOC(=O)[C@H](CCc1ccccc1)N[C@H]1CCCN2CCC[C@@H](C(=O)O)N2C1=O [cilazapril], which “memory function (passive avoidance)” value [5] is on record?
**A.** Its value is “dose-dependently improved”.

**Q.** What about the “capillary densities in the CA1 regions” value [5] of the same compound?
**A.** Its value is “significant increases”.

**Q.** And the “hippocampal CA1 cells” value [5]?
**A.** The value was “significant increases”.

**Q.** What does the source list for Cc1ccnc2c1nc(C1CC1)n2Cc1ccc(-c2ccccc2C(=O)O)cc1 [Compound E4177]?
**A.** memory function (passive avoidance) [5]: slightly improved; capillary densities in the CA1 regions [5]: not influenced; hippocampal CA1 cells [5]: restored slightly

**Q.** With COC(=O)[C@@H]1CC2=CC(=O)CC[C@]2(C)[C@@]23O[C@@H]2C[C@@]2(C)[C@@H](CC[C@@]24CCC(=O)O4)[C@H]13 [Form L, eplerenone] as the compound, how does the “physical stability relative to Form H” value [6] read?
**A.** Its value is “greater physical stability”.

**Q.** For C[C@]12C[C@H](O)[C@H]3[C@@H](CCC4=CC(=O)CC[C@@]43C)[C@@H]1CC[C@@H]2C(=O)CO [Corticosterone], which “affinity for central mineralocorticoid receptors” value [7] is on record?
**A.** Its value is “high affinity”.

**Q.** And the “affinity for glucocorticoid receptors relative to mineralocorticoid receptors” value [8]?
**A.** Its value is “tenfold lower affinity”.

**Q.** What about the “adrenalectomy-increased behavioral reactivity towards the object” value ([2]; 50 micrograms/kg s.c.) of the same compound?
**A.** The value was “blocked”.

**Q.** For COC(=O)[C@@H]1CC2=CC(=O)CC[C@]2(C)[C@@]23O[C@@H]2C[C@@]2(C)[C@@H](CC[C@@]24CCC(=O)O4)[C@H]13 [Form H, eplerenone], which “dissolution rate, higher than unformulated Form L” value [9] is on record?
**A.** The value was “approximately 30%”.
